Consider four compounds from patent US4559346A, “Certain N-octahydro-indolizinebenzamides and their use in treating psychosis, cardiac arrhythmia and hypertension” (Beecham Group p.l.c., priority 1982, dated 1985).

This test relates to post-synaptic Dopamine (D.A.) receptors. Briefly: Inhibition of apomorphine induced climbing in the mouse. Type of test: in vivo. The following applies: male CDI mice, p.o., 1/2 hour post dosing, apomorphine 1 mg/kg s.c.; for ED50 (dose for 50% inhibition of apomorphine-induced climbing): 30 min; for ED50: Mus musculus, po, 0.5 h, read-out: ED50 (dose for 50% inhibition of apomorphine-induced climbing). As to the method:
Inhibition of apomorphine induced climbing in the mouse
The test is based on that described by Protais, P., Constantin, J. and Schwartz J. C.
When mice are given a dose of 1 mg/kg apomorphine and then placed in an enclosed environment, such as an inverted wire cage, they are seen to climb around the walls. This behavioural phenomenon is thought to be a consequence of the stimulation of post-synaptic Dopamine (D.A.) receptors in the nucleus accumbens. Inhibition of apomorphine induced climbing is therefore indicative of post-synaptic D.A. receptor blockade in the accumbens.
Groups of 10 male CDI mice, weighing 25-30 g were pretreated orally with either graded doses of the test compound or vehicle, at appropriate time intervals before the subcutaneous administration of a sub-maximal dose of apomorphine (1 mg/kg). Immediately after the apomorphine injection the mice were placed in wire `climbing cages` and each animal was scored for climbing behavour at 10 and 20 minutes post apomorphine as follows:
Four paws on cage floor=0
The total score was calculated for each group of mice and expressed as a percentage inhibition of climbing.
Total score for apomorphine control

Consider “(±) 4-Amino-5-chloro-2-methoxy-N-(7'β-[3'-o-fluorophenyl-1'-aza-5'αH-bicyclo[4,3,0]nonyl)]benzamide [2 (d)]”, for which the “ED50 (dose for 50% inhibition of apomorphine-induced climbing)” value came to 0.52 mg/kg p.o. For `COc1cc(N)c(Cl)cc1C(=O)N[C@H]1CCN2C[C@@H](c3ccccc3)C[C@H]2C1` (relative stereo) [2 (a), (±) 4-Amino-5-chloro-2-methoxy-N-[7'β-(3'β-phenyl-1'-aza-5'αH-bicyclo[4,3,0]nonyl)]benzamide], the ED50 was 0.235 mg/kg.

As to `COc1cc(N)c(Cl)cc1C(=O)NC1CCN2CC(C)(c3ccccc3)CCC12` (racemic) [2 (c), (±) 4-Amino-5-chloro-2-methoxy-N-[7'β-[3'-methyl-3'-phenyl-1'-aza-5'αH-bicyclo[4,3,0]nonyl)]benzamide], the “ED50 (dose for 50% inhibition of apomorphine-induced climbing)” value worked out at 0.48 mg/kg p.o.

Regarding `COc1cc(N)c(Cl)cc1C(=O)N[C@H]1CCN2C[C@@H](c3ccc(F)cc3)C[C@H]2C1` (relative stereo) [2 (b), (±) 4-Amino-5-chloro-2-methoxy-N-[7'β-(3'β-p-fluorophenyl-1'-aza-5'αH-bicyclo[4,3,0]nonyl)]benzamide], the ED50 is 0.195 mg/kg.
